From ChEMBL document CHEMBL5614382, “Discovery of a new 1-(phenylsulfonyl)-1H-indole derivative targeting the EphA2 receptor with antiproliferative activity on U251 glioblastoma cell line” (Eur J Med Chem, 2024)
pIC50: −log10 of the molar value.

Legend:
[1] = target: T1, Ephrin type-A receptor 6 (Mus musculus, UniProt Q62413); assay: Displacement of biotinylated Fc-tagged ephrin-A1 from recombinant N/C-terminal 6-his tagged mouse EphA6 (Ser28 to Gln546 residues) preincubated for 1 hr followed by ephrin-A1-Fc addition and measured after 4 to 5 hrs by ELISA assay
T1 sequence (Q62413 whole entry): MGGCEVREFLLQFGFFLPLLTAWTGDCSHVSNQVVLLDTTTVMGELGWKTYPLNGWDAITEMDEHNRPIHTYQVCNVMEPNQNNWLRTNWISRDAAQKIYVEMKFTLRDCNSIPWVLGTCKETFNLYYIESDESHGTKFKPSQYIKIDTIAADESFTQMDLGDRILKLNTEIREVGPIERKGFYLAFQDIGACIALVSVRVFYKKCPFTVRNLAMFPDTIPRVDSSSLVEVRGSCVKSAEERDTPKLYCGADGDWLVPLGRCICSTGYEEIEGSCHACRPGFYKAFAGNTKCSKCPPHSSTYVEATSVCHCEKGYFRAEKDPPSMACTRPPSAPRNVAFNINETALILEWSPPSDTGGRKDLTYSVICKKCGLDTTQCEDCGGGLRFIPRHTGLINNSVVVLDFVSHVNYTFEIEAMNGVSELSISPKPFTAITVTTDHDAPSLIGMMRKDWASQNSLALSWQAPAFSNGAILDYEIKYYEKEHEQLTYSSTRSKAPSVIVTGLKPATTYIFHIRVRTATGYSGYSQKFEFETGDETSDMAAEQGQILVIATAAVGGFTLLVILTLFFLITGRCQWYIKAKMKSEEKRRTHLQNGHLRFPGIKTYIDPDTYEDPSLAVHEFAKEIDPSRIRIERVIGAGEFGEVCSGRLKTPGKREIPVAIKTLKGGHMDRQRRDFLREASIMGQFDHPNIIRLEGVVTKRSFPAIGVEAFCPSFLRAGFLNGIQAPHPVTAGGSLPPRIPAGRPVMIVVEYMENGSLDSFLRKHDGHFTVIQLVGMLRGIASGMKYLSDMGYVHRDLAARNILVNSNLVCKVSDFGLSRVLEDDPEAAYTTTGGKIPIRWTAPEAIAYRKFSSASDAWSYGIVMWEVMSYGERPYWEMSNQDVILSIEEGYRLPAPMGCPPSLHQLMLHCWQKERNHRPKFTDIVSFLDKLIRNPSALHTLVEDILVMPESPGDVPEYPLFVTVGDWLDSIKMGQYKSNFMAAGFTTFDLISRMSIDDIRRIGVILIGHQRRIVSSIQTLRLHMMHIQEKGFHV

[2] = target: T2, Ephrin type-B receptor 1 (Rattus norvegicus, UniProt P09759); assay: Displacement of biotinylated Fc-tagged ephrin-B1 from N/C-terminal recombinant rat EphB1 (Met18 to Gln538 residues) preincubated for 1 hr followed by ephrin-B1-Fc addition and measured after 4 to 5 hrs by ELISA assay
T2 sequence (P09759 whole entry): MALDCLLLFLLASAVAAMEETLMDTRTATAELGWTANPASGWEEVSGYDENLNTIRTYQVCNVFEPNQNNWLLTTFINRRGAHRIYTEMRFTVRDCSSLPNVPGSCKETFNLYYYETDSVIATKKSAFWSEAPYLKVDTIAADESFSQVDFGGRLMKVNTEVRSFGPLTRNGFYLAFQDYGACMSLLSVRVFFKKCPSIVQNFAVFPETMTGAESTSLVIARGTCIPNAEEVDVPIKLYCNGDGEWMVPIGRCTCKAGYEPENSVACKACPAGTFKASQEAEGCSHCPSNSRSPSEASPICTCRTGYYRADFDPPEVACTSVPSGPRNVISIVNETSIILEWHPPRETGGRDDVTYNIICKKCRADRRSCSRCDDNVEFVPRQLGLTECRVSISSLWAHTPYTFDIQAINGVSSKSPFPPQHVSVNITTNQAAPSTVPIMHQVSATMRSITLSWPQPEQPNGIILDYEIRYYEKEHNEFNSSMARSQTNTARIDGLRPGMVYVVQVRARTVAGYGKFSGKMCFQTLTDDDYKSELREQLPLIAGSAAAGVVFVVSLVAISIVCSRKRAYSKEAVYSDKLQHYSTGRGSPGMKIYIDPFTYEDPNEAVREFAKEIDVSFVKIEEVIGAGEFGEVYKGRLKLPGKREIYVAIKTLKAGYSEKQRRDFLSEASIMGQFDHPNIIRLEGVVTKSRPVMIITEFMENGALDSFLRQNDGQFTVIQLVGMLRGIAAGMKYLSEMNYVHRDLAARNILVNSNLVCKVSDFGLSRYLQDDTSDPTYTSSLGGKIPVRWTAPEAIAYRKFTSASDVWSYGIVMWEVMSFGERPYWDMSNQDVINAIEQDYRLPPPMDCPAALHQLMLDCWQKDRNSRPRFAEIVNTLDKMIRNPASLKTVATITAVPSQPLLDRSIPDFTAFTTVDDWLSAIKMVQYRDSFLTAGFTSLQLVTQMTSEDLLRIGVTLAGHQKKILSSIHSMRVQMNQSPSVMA

[3] = target: Ephrin type-A receptor 4 (Mus musculus, UniProt Q03137); assay: Displacement of biotinylated Fc-tagged ephrin-A1 from recombinant N/C-terminal 6-his tagged mouse EphA4 (Val20 to Thr547 residues) preincubated for 1 hr followed by ephrin-A1-Fc addition and measured after 4 to 5 hrs by ELISA assay
Chain of Ephrin type-A receptor 4 (Q03137 whole entry): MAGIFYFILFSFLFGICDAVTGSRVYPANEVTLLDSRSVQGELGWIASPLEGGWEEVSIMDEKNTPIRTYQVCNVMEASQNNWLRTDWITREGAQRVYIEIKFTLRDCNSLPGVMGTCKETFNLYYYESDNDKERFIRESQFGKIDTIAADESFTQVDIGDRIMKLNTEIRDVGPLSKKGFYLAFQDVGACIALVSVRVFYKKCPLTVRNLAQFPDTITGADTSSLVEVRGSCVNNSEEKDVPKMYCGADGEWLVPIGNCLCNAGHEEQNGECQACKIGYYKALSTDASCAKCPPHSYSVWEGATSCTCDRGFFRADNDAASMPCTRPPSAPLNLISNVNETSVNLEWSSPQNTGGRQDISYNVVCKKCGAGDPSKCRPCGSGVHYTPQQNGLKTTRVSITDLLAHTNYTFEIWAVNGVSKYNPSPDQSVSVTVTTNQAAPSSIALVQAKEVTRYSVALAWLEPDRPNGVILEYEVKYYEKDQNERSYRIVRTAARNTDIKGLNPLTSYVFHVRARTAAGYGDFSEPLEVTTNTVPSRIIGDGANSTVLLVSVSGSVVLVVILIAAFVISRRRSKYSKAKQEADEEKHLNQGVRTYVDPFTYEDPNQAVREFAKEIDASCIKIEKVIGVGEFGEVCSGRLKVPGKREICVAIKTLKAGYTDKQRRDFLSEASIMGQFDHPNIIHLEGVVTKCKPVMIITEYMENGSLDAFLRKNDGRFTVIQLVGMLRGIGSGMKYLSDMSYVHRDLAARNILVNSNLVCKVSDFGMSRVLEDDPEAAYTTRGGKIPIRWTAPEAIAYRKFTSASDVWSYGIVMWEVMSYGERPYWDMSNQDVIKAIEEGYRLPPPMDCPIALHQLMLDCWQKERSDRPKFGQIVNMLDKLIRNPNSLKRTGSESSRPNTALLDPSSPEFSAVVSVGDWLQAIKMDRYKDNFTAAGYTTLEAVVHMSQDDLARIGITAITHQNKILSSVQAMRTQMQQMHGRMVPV

[4] = target: Ephrin type-A receptor 7 (Mus musculus, UniProt Q61772); assay: Displacement of biotinylated Fc-tagged ephrin-A1 from recombinant N/C-terminal 6-his tagged mouse EphA7 (Ala30 to Pro549 residues) preincubated for 1 hr followed by ephrin-A1-Fc addition and measured after 4 to 5 hrs by ELISA assay
Chain of Ephrin type-A receptor 7 (Q61772 whole entry): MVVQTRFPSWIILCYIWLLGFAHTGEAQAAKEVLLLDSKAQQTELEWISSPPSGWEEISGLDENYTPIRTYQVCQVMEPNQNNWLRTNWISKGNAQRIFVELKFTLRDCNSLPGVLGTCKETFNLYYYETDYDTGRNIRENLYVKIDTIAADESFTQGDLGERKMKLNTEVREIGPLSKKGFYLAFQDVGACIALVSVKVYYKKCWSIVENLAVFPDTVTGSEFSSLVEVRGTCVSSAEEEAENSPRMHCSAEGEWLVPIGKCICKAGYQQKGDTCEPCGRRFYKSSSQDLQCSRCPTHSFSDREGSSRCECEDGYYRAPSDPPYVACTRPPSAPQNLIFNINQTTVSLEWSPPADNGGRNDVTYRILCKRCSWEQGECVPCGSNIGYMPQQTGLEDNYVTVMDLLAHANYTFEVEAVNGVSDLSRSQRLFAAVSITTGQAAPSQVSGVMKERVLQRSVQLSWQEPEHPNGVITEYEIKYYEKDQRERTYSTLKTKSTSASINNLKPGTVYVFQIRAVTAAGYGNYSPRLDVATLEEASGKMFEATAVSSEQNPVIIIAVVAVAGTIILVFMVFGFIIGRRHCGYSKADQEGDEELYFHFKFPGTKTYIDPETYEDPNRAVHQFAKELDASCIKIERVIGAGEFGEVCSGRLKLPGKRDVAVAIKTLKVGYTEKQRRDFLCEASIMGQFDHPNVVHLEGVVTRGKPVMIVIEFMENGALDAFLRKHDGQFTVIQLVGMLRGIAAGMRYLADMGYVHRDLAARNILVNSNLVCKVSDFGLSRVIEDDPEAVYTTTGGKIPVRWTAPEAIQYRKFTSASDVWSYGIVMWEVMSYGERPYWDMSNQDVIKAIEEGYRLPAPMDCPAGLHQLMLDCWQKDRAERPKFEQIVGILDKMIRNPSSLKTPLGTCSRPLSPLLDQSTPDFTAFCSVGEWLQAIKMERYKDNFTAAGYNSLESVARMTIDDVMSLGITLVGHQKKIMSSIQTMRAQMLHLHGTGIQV

Row | SMILES | pIC50 [1] | pIC50 [2] | pIC50 [3] | pIC50 [4]
1 | C[C@H](CCC(=O)N[C@H](CC(=O)O)Cc1cn(S(=O)(=O)c2ccccc2)c2ccccc12)[C@H]1CC[C@H]2[C@@H]3CC=C4C[C@@H](O)CC[C@]4(C)[C@H]3CC[C@]12C | 4.96 | < 4.52 | 5.20 | 4.66
2 | C[C@H](CCC(=O)N[C@H](CC(=O)O)Cc1cn(S(=O)(=O)c2ccc(C(F)(F)F)cc2)c2ccccc12)[C@H]1CC[C@H]2[C@@H]3CC=C4C[C@@H](O)CC[C@]4(C)[C@H]3CC[C@]12C | 5.00 | < 4.52 | 5.38 | 4.82
3 | C[C@H](CCC(=O)N[C@H](CC(=O)O)Cc1c[nH]c2ccccc12)[C@H]1CC[C@H]2[C@@H]3CC=C4C[C@@H](O)CC[C@]4(C)[C@H]3CC[C@]12C | 5.54 | 5.11 | 5.55 | 5.35
